IC50 data for eleven molecules are collected here from ChEMBL document CHEMBL3632496, “Novel 2-Carbonylbenzo[b]thiophene 1,1-Dioxide Derivatives as Potent Inhibitors of STAT3 Signaling Pathway” (ACS Med Chem Lett, 2015).

The term IC50 denotes the concentration that inhibits the measured activity by half.

For the first assay, the system named is MDA-MB-231. The experiment in a line: Cytotoxicity against human MDA-MB-231 cells assessed as growth inhibition after 48 hrs by MTT assay. The following applies: MDA-MB-231, 48 h. The assay is classed as functional, cell-based.
Turning to `CCN(CC)C(=O)C1=Cc2cc(Br)ccc2S1(=O)=O`, the IC50 stood at 1.67 µM.
The same measure, in the same setting: with `O=C(C1=Cc2cc(Br)ccc2S1(=O)=O)N1CCCC1` the figure was 1.27 µM; with `O=C(C1=Cc2cc(Br)ccc2S1(=O)=O)N1CCOCC1`, 1.04 µM; with `CN(C(=O)C1=Cc2cc(Br)ccc2S1(=O)=O)c1ccccc1`, 0.88 µM.
As for `O=C(Nc1ccccc1)C1=Cc2cc(Br)ccc2S1(=O)=O`, the half-maximal inhibitory concentration (IC50) is 1.72 µM.
Turning to `CCCCNC(=O)C1=Cc2cc(Br)ccc2S1(=O)=O`, the IC50 was 2.31 µM.
For the molecule `CC(C)(C)NC(=O)C1=Cc2cc(Br)ccc2S1(=O)=O`, the 50% inhibitory concentration (IC50) is 1.34 µM.
As for `O=C(Nc1ccc2c(c1)C=C(C(=O)N1CCCCC1)S2(=O)=O)c1ccccc1`, the IC50 was found to be 1.68 µM.
For the molecule `O=C(Nc1ccccc1)C1=Cc2ccc(Br)cc2S1(=O)=O`, the IC50 was 1.84 µM.
In the case of `O=C(Nc1ccccc1)C1=Cc2cc([N+](=O)[O-])ccc2S1(=O)=O`, the IC50 was 3.04 µM.
Turning to `O=C(Nc1cccc(Cl)c1)C1=Cc2c(Br)cccc2S1(=O)=O`, the IC50 came to 2.21 µM.

Tested on in a further assay: not listed separately
The experiment in a line: Cytotoxicity against human MDA-MB-435S cells assessed as growth inhibition after 48 hrs by MTT assay. The assay is classed as functional, cell-based.
Conditions: not given
Background: Formazan colour is commonly taken as a measure of viable cells.
Take `CCN(CC)C(=O)C1=Cc2cc(Br)ccc2S1(=O)=O`: the IC50 was determined as 1.54 µM.
`O=C(C1=Cc2cc(Br)ccc2S1(=O)=O)N1CCCC1`: the IC50 is 0.94 µM.
Regarding `O=C(C1=Cc2cc(Br)ccc2S1(=O)=O)N1CCOCC1`, the IC50 is 0.8 µM.
On to `CN(C(=O)C1=Cc2cc(Br)ccc2S1(=O)=O)c1ccccc1`, for which the concentration for half-maximal inhibition (IC50) is 0.95 µM.
Turning to `CC(C)(C)NC(=O)C1=Cc2cc(Br)ccc2S1(=O)=O`, the IC50 came out at 0.82 µM.

For the next assay, the system named is MCF7. The experiment in a line: Cytotoxicity against human MCF7 cells assessed as growth inhibition after 48 hrs by MTT assay. The following applies: MCF7, 48 h. The format is functional, cell-based.
With `CCN(CC)C(=O)C1=Cc2cc(Br)ccc2S1(=O)=O`, the half-inhibitory concentration (IC50) was 0.89 µM.
Turning to `O=C(C1=Cc2cc(Br)ccc2S1(=O)=O)N1CCCC1`, the IC50 came out at 1.38 µM.
As to `O=C(C1=Cc2cc(Br)ccc2S1(=O)=O)N1CCOCC1`, the concentration for half-maximal inhibition (IC50) stood at 1.05 µM.
Still for that read-out and setting: next, `CN(C(=O)C1=Cc2cc(Br)ccc2S1(=O)=O)c1ccccc1`: 1.13 µM; `CC(C)(C)NC(=O)C1=Cc2cc(Br)ccc2S1(=O)=O`: 1.27 µM.

The test system of a further assay is DU-145. The experiment in a line: Cytotoxicity against human DU145 cells assessed as growth inhibition after 48 hrs by MTT assay. The format is functional, cell-based. The following applies: DU-145, 48 h.
Take `CCN(CC)C(=O)C1=Cc2cc(Br)ccc2S1(=O)=O`: the IC50 is 1.46 µM.
On to `O=C(C1=Cc2cc(Br)ccc2S1(=O)=O)N1CCCC1`, for which the IC50 came to 1.54 µM.
`O=C(C1=Cc2cc(Br)ccc2S1(=O)=O)N1CCOCC1`: the IC50 stood at 1.91 µM.
On to `CN(C(=O)C1=Cc2cc(Br)ccc2S1(=O)=O)c1ccccc1`, for which the IC50 turned out to be 1.26 µM.
Regarding `O=C(Nc1ccccc1)C1=Cc2cc(Br)ccc2S1(=O)=O`, the half-maximal inhibitory concentration (IC50) was found to be 2.77 µM.
Consider `CCCCNC(=O)C1=Cc2cc(Br)ccc2S1(=O)=O`, for which the half-inhibitory concentration (IC50) is 3.86 µM.
Turning to `CC(C)(C)NC(=O)C1=Cc2cc(Br)ccc2S1(=O)=O`, the half-maximal inhibitory concentration (IC50) was 1.35 µM.
For the molecule `O=C(Nc1ccc2c(c1)C=C(C(=O)N1CCCCC1)S2(=O)=O)c1ccccc1`, the IC50 was determined as 2.07 µM.
With `O=C(Nc1ccccc1)C1=Cc2ccc(Br)cc2S1(=O)=O`, the 50% inhibitory concentration (IC50) is 2.66 µM.
Still for that read-out and setting: with `O=C(Nc1ccccc1)C1=Cc2cc([N+](=O)[O-])ccc2S1(=O)=O` the figure was 5.19 µM.
As for `O=C(Nc1cccc(Cl)c1)C1=Cc2c(Br)cccc2S1(=O)=O`, the concentration for half-maximal inhibition (IC50) came out at 3.39 µM.

Tested on in the next assay: not listed separately
As to the kind of experiment: Cytotoxicity against human PANC1 cells assessed as growth inhibition after 48 hrs by MTT assay. The following applies: PANC-1, 48 h. The format is functional, cell-based.
With `CCN(CC)C(=O)C1=Cc2cc(Br)ccc2S1(=O)=O`, the 50% inhibitory concentration (IC50) was 1.94 µM.
Take `O=C(C1=Cc2cc(Br)ccc2S1(=O)=O)N1CCCC1`: the half-inhibitory concentration (IC50) worked out at 3.47 µM.
Regarding `O=C(C1=Cc2cc(Br)ccc2S1(=O)=O)N1CCOCC1`, the IC50 turned out to be 3.95 µM.
Turning to `CN(C(=O)C1=Cc2cc(Br)ccc2S1(=O)=O)c1ccccc1`, the 50% inhibitory concentration (IC50) came to 4.38 µM.
For the molecule `CC(C)(C)NC(=O)C1=Cc2cc(Br)ccc2S1(=O)=O`, the IC50 is 3.34 µM.

A further assay relates to A549. As to the kind of experiment: Cytotoxicity against human A549 cells assessed as growth inhibition after 48 hrs by MTT assay. The assay is classed as functional, cell-based. The following applies: A549, 48 h.
As for `CCN(CC)C(=O)C1=Cc2cc(Br)ccc2S1(=O)=O`, the half-maximal inhibitory concentration (IC50) was determined as 1.58 µM.
Regarding `O=C(C1=Cc2cc(Br)ccc2S1(=O)=O)N1CCCC1`, the 50% inhibitory concentration (IC50) was 3.47 µM.
In the case of `O=C(C1=Cc2cc(Br)ccc2S1(=O)=O)N1CCOCC1`, the IC50 was determined as 2.31 µM.
Same read-out and setting: next, `CN(C(=O)C1=Cc2cc(Br)ccc2S1(=O)=O)c1ccccc1`: 2.08 µM.
Regarding `CC(C)(C)NC(=O)C1=Cc2cc(Br)ccc2S1(=O)=O`, the IC50 amounted to 2.85 µM.
